Here are results for 8 compounds from US8088815B2, “Spiroindolinone pyrrolidines” (Hoffman-La Roche Inc., priority 2009, dated 2012).

Sequence of interaction between p53 and MDM2 proteins (Q00987 whole entry): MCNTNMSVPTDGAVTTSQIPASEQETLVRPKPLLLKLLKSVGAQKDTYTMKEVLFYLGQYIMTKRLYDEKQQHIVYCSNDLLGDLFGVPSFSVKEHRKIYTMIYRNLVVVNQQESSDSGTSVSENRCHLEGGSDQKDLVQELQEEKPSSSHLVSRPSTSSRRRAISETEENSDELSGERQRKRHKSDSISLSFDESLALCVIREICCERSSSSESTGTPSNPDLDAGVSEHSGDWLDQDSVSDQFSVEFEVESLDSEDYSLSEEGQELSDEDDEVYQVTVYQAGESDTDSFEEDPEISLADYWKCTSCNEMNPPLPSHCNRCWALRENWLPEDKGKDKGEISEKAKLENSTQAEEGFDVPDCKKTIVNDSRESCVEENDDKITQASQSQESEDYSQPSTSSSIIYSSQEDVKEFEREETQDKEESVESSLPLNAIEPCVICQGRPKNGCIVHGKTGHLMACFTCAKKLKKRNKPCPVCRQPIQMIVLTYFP

The assay concerns the target interaction between p53 and MDM2 proteins (Homo sapiens, UniProt Q00987). Description: HTRF assay of inhibition of the p53-MDM2 interaction (GST-MDM2 / biotinylated p53 peptide). It counts as binding. The settings on record: recombinant GST-tagged MDM2 and biotinylated p53 peptide, bsa:0.02%. On the procedure:
The ability of the compounds to inhibit the interaction between p53 and MDM2 proteins was measured by an HTRF (homogeneous time-resolved fluorescence) assay in which recombinant GST-tagged MDM2 binds to a peptide that resembles the MDM2-interacting region of p53. Binding of GST-MDM2 protein and p53-peptide (biotinylated on its N-terminal end) is registered by the FRET (fluorescence resonance energy transfer) between Europium (Eu)-labeled anti-GST antibody and streptavidin-conjugated Allophycocyanin (APC).
Add 10 uL diluted compounds (1:5 dilution in reaction buffer) to each well, mix by shaking. Add 20 uL biotinylated p53 peptide (180 nM working solution) in reaction buffer to each well and mix on shaker. Incubate at 37° C. for 1 h. Add 20 uL streptavidin-APC and Eu-anti-GST antibody mixture (6 nM Eu-anti-GST and 60 nM streptavidin-APC working solution) in TBS buffer with 0.2% BSA, shake at room temperature for 30 minutes and read using a TRF-capable plate reader at
665 and 615 nm (Victor 5, Perkin ElmerWallac). If not specified, the reagents were purchased from Sigma Chemical Co.
On the technique in general: In TR-FRET formats the signal depends on donor and acceptor labels being close together.
Regarding `CC(C)(C)C[C@@H]1N[C@@H](C(=O)Nc2ccc(CCC(=O)O)cc2)[C@H](c2cccc(Cl)c2F)[C@]12C(=O)Nc1cc(Cl)ccc12` [Example 222, chiral 3-(4-{[(2′S,3′R,4′S,5′R)-6-chloro-4′-(3-chloro-2-fluoro-phenyl)-2′-(2,2-dimethyl-propyl)-2-oxo-1,2-dihydro-spiro[indole-3,3′-pyrrolidine]-5′-carbonyl]-amino}-phenyl)-propionic acid], the IC50 (usually the concentration that gives 50% inhibition) turned out to be 5 nM.
In the case of `CC(C)(C)C[C@@H]1N[C@@H](C(=O)Nc2ccc(C#N)nc2)[C@H](c2cccc(Cl)c2F)[C@]12C(=O)Nc1cc(Cl)ccc12` (racemic) [Example 182, rac-(2′S,3′R,4′S,5′R)-6-chloro-4′-(3-chloro-2-fluoro-phenyl)-2′-(2,2-dimethyl-propyl)-2-oxo-1,2-dihydro-spiro[indole-3,3′-pyrrolidine]-5′-carboxylic acid (6-cyano-pyridin-3-yl)-amide], the IC50 stood at 17 nM.
To `CC(C)(C)C[C@@H]1N[C@@H](C(=O)Nc2ccc(C(N)=O)cc2)[C@H](c2cccc(Br)c2F)[C@]12C(=O)Nc1cc(Cl)ccc12` (racemic) [Example 99, rac-(2′S,3′R,4′S,5′R)-4′-(3-bromo-2-fluoro-phenyl)-6-chloro-2′-(2,2-dimethyl-propyl)-2-oxo-1,2-dihydro-spiro[indole-3,3′-pyrrolidine]-5′-carboxylic acid (4-carbamoyl-phenyl)-amide] belongs 18 nM; to `COc1cc(OCCS(C)(=O)=O)ccc1NC(=O)[C@@H]1N[C@@H](CC(C)(C)C)[C@@]2(C(=O)Nc3cc(Cl)ccc32)[C@H]1c1cccc(Cl)c1F` [Example 170, chiral (2′S,3′R,4′S,5′R)-6-chloro-4′-(3-chloro-2-fluoro-phenyl)-2′-(2,2-dimethyl-propyl)-2-oxo-1,2-dihydro-spiro[indole-3,3′-pyrrolidine]-5′-carboxylic acid [4-(2-methanesulfonyl-ethoxy)-2-methoxy-phenyl]-amide], 7 nM; to `COc1cc(C#N)ccc1NC(=O)[C@@H]1N[C@@H](CC(C)(C)C)[C@@]2(C(=O)Nc3cc(Cl)cc(F)c32)[C@H]1c1cccc(Cl)c1F` (racemic) [Example 75, rac-(2′S,3′R,4′S,5′R)-6-chloro-4′-(3-chloro-2-fluoro-phenyl)-2′-(2,2-dimethyl-propyl)-4-fluoro-2-oxo-1,2-dihydro-spiro[indole-3,3′-pyrrolidine]-5′-carboxylic acid (4-cyano-2-methoxy-phenyl)-amide], 20 nM.
Next, `CCCCOc1cc(C(N)=O)ccc1NC(=O)[C@@H]1N[C@@H](CC(C)(C)C)[C@@]2(C(=O)Nc3cc(Cl)ccc32)[C@H]1c1cccc(Cl)c1F` (racemic) [Example 152, rac-(2′S,3′R,4′S,5′R)-6-chloro-4′-(3-chloro-2-fluoro-phenyl)-2′-(2,2-dimethyl-propyl)-2-oxo-1,2-dihydro-spiro[indole-3,3′-pyrrolidine]-5′-carboxylic acid (2-butoxy-4-carbamoyl-phenyl)-amide]: 11 nM.
To `CC(C)(C)C[C@@H]1N[C@@H](C(=O)Nc2ccc(C#N)cc2)[C@H](c2cccc(Cl)c2F)[C@]12C(=O)Nc1cc(Cl)c(F)cc12` (racemic) [Example 48, rac-(2′S,3′R,4′S,5′R)-6-chloro-4′-(3-chloro-2-fluoro-phenyl)-2′-(2,2-dimethyl-propyl)-5-fluoro-2-oxo-1,2-dihydro-spiro[indole-3,3′-pyrrolidine]-5′-carboxylic acid (4-cyano-phenyl)-amide] belongs 16 nM; to `COc1cc(C(=O)O)ccc1NC(=O)[C@@H]1N[C@@H](CC(C)(C)C)[C@@]2(C(=O)Nc3cc(Cl)ccc32)[C@H]1c1cc(F)cc(Cl)c1` (racemic) [Example 125, rac-4-{[(2′S,3′R,4′R,5′R)-6-chloro-4′-(3-chloro-5-fluoro-phenyl)-2′-(2,2-dimethyl-propyl)-2-oxo-1,2-dihydro-spiro[indole-3,3′-pyrrolidine]-5′-carbonyl]-amino}-3-methoxy-benzoic acid], 7 nM.
